Results published in US10253002B2, “Compounds and methods of treating infections” (Neoculi Pty Ltd., priority 2013, dated 2019).
Read-outs that look alike come from different tables or passages of the source.

System: MRSA
Experiment: Broth microdilution MIC, Example 7 (NCL812 and analogues)
Assay type: cell-based, Staphylococcus aureus
Details: Staphylococcus aureus, MRSA, read-out: MIC
Procedure, shortened: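 Isolates were tested in duplicate, with a third run if replicates differed by more than one two-fold dilution; inoculum purity was checked on sheep blood agar.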

Measured: MIC

CC1(C)S[C@@H]2[C@H](NC(=O)[C@H](N)c3ccccc3)C(=O)N2[C@H]1C(=O)O [Ampicillin]
> 128 µg/mL: MRSA 570, Phase II, 2nd | MRSA 580, Phase I, 1st | MRSA 580, Phase I, 2nd | MRSA 580, Phase II, 1st | MRSA 580, Phase II, 2nd | MRSA 713, Phase I, 1st | MRSA 713, Phase I, 2nd | MRSA 718, Phase I, 1st | MRSA 718, Phase I, 2nd | MRSA 734, Phase I, 1st | MRSA 734, Phase I, 2nd | MRSA 747, Phase I, 1st | MRSA 747, Phase I, 2nd | MRSA 778, Phase I, 1st | MRSA 778, Phase I, 2nd | MRSA 787, Phase I, 1st | MRSA 787, Phase I, 2nd | MRSA 823, Phase I, 1st | MRSA 823, Phase I, 2nd
4 µg/mL: MRSA 741, Phase II, 1st | MRSA 741, Phase II, 2nd
32 µg/mL: MRSA 606, Phase I, 1st | MRSA 606, Phase I, 2nd | MRSA 606, Phase II, 1st | MRSA 606, Phase II, 2nd | MRSA 610, Phase II, 1st | MRSA 610, Phase II, 2nd | MRSA 622, Phase II, 1st | MRSA 622, Phase II, 2nd | MRSA 728, Phase II, 1st | MRSA 728, Phase II, 2nd | MRSA 786, Phase I, 1st | MRSA 786, Phase I, 2nd | MRSA 786, Phase II, 1st | MRSA 786, Phase II, 2nd | MRSA 815, Phase II, 1st | MRSA 815, Phase II, 2nd | MRSA 844, Phase II, 2nd
8 µg/mL: MRSA 698, Phase II, 1st | MRSA 698, Phase II, 2nd | MRSA 741, Phase I, 1st | MRSA 741, Phase I, 2nd
64 µg/mL: MRSA 616, Phase I, 1st | MRSA 616, Phase I, 2nd | MRSA 616, Phase II, 1st | MRSA 616, Phase II, 2nd | MRSA 622, Phase I, 1st | MRSA 622, Phase I, 2nd | MRSA 698, Phase I, 1st | MRSA 698, Phase I, 2nd | MRSA 718, Phase II, 1st | MRSA 718, Phase II, 2nd | MRSA 728, Phase I, 1st | MRSA 728, Phase I, 2nd | MRSA 734, Phase II, 1st | MRSA 734, Phase II, 2nd | MRSA 747, Phase II, 1st | MRSA 747, Phase II, 2nd | MRSA 773, Phase I, 1st | MRSA 773, Phase I, 2nd | MRSA 773, Phase II, 1st | MRSA 773, Phase II, 2nd | MRSA 787, Phase II, 1st | MRSA 787, Phase II, 2nd | MRSA 815, Phase I, 1st | MRSA 815, Phase I, 2nd | MRSA 844, Phase II, 1st
